Two molecules from article PMC4336141, “Repurposing Auranofin as a Lead Candidate for Treatment of Lymphatic Filariasis and Onchocerciasis” (PLoS Neglected Tropical Diseases, 2015) can be followed below.

Entries after “also recorded” stand apart in the source; their conditions may differ.

For assay [1], the system named is Recombinant B. malayi TrxR (rBmTrxR). Description: Recombinant B. malayi TrxR (rBmTrxR) DTNB inhibition assay. It counts as biochemical, Brugia malayi. As for the experimental part:
Recombinant 6-His-tagged B. malayi TrxR (rBmTrxR) was produced in E. coli BL21(DE3) in the presence of pSUABC [29] in LB medium supplemented with 20 μg/mL riboflavin under conditions for optimal selenoprotein expression. An overnight starter culture in LB with 50 μg/mL ampicillin and 34 μg/mL chloramphenicol was diluted (1:100) into in LB medium with the same antibiotics. When the culture reached an OD600 = 0.8, the medium was supplemented with 5 μM sodium selenite and 100 μg/mL L-cysteine. When the culture OD600 = 2, riboflavin (20 μg/mL) was added and protein expression was induced by the addition of isopropyl β-D-1-thiogalactopyranoside (50 μM). At this point the cultures were shifted to 24°C and incubated for 24 hr. Cells were collected by centrifugation, lysed by alternative freeze-thaw cycles, and resuspended in lysis buffer (50 mM potassium phosphate, pH 7.8, 500 mM NaCl, 30 mM imidazole, 1 mg/mL lysozyme, 1 mM phenylmethanesulfonylfluoride) supplemented with 100 μM flavin adenine dinucleotide. The sample was sonicated and cellular debris pelleted at 25,000 x g at 4°C for 25 min. The supernatant was collected and filtered through a 0.45 μm filter before purification by immobilized metal ion affinity chromatography using a His-Trap FF column (GE Healthcare). The column was washed with 10 column volumes binding buffer (50 mM potassium phosphate, pH 7.8, 500 mM NaCl, 30 mM imidazole) and then with 5 column volumes of buffer A (binding buffer with 100 mM imidazole). TrxR protein was eluted in 3 × 1 mL buffer B (binding buffer with 500 mM imidazole).Protein was concentrated (Amicon Ultra-4 10K) and purity was verified by SDS-PAGE and quantified by absorbance at 280 nm (ε = 69.76 mM^-1 cm^-1).
rBmTrxR activity was assayed in 0.1 M potassium phosphate (pH 7.2) with 10 mM EDTA and 25 nM rBmTrxR. rBmTxrR was pre-incubated for 20 min with NADPH (100 μM) and auranofin (ICN Pharmaceuticals, now Valeant Pharmaceuticals, Bridgewater, NJ) or aurothioglucose (USP Reference Standards, Rockville, MD) in DMSO in 100 μL, followed by addition of an equal volume of buffer with NADPH (200 μM) and DTNB (6 mM) with reaction progress monitored at λ = 412 nm for TNB production. The concentration of DMSO in all reactions was 3.5%.

The subject of assay [2] is adult female B. pahangi. Description: Transmission electron microscopy of treated adult female B. pahangi. The class given is cell-based, Brugia pahangi. Conditions: flubendazole 10 μM overnight, positive control. The method, then: Adult female B. pahangi worms were incubated with either 1 μM, 0.3 μM, or 0.1 μM auranofin, 10 μM flubendazole (as a positive control), or 1% DMSO overnight, then cut into 3 segments separating the anterior, middle and posterior sections. The middle sections were further cut into 1 mm sized pieces in fixative (2.5% glutaraldehyde and 2% paraformaldehyde in 0.1 M sodium cacodylate buffer, pH 7.3–7.4) and stored at 4°C. Middle sections were subsequently treated with 1% tannic acid for 1 hour, followed by three buffer washes before post fixation staining with 2% osmium tetroxide for 1 hour. The samples were washed three times in buffer before dehydration in an ethanol series. Worm sections were then infiltrated with propylene oxide, embedded in epon 812 resin and polymerized in a vacuum oven at 60°C overnight. Ultrathin sections were cut using an RMC MTX ultramicrotome with a Diatome diamond knife followed by post staining of the grids with saturated ethanolic uranyl acetate and Reynolds lead citrate. Samples were imaged on a FEI Tecnai 12 spirit TEM operated at 80 kV. A similar procedure was performed on adult female O. ochengi worm masses that were cultured for 7 days with 10 μM auranofin before fixation of cut pieces of the adult female mass. Untreated adult female masses cultured for 7 days and fixed by the same procedure served as the control.

The IC50 is the point on the concentration scale where inhibition reaches its midpoint. For the molecule aurothioglucose, the “mode of inhibition of rBmTrxR” value in assay [1] was “irreversibly inhibit rBmTrxR at a one-to-one molar ratio”. In assay [1] (25 nM rBmTrxR, 20 min pre-incubation with NADPH, DTNB substrate), the concentration for half-maximal inhibition (IC50) came out at 9 nM.

Take `COC(=O)Nc1nc2cc(C(=O)c3ccc(F)cc3)ccc2[nH]1` [flubendazole]: the “ultrastructure (TEM) of adult female B. pahangi” value in assay [2] is “normal Wolbachia with very few mitochondria containing dark bodies; also recorded: did not cause vacuolization but only minor changes to the mitochondria”.
